Reference: patent US4593043A, “Mercapto acyl-carnitines and pharmaceutical compositions containing same” (Sigma-Tau Industrie Farmaceutiche Riunite S.p.A., priority 1981, dated 1986)
Counter-ions that a name gives are not always drawn.

How the values were obtained:
[1] = Acute toxicity in the mouse, Weil method; settings: in vivo, ip
Text: The acute toxicity of the compounds of general formula (I) has been studied in the mouse with the Weil method (Weil C. S., Biometer. J. 8, 249, 1952).
The LD50 values of some compounds illustrated in Table I, indicate that the compounds are remarkably well tolerated. PG,20
general formula (I). Weil's method (N = 5, K = 4) Cl = hydro-

[2] = tested on: damage provoked by irradiation in rats; assay: Protection against X-ray exposure (survival after irradiation); type: in vivo, Albino Wister rats; settings: 30-40 mg Kg^-1 1 hour before irradiation and 15 mg Kg^-1 per day in the subsequent 20 days
Procedure: The effect of the compounds of formula (I) towards the damages provoked by X-ray exposure was studied.
The experiment animals, Albino Wister rats, treated with the compounds under examination (30-40 mg Kg^-1 1 hour before irradiation and 15 mg Kg^-1 per day in the subsequent 20 days) were irradiated and checked over a time period to detect the onset of toxic effects and the time of survival with respect to the control group. […]

[3] = tested on: burned cutaneous area of the back; assay: Cutaneous regeneration from burns; type: in vivo; settings: rabbits, oral, 20 mg Kg^-1 once a day for seven days; for Percentage of regenerated tissue, 4th day: 4th day from treatment; for Percentage of regenerated tissue, 8th day: 8th day from treatment
Procedure: The ability of the compounds of formula (I) to speed up the cutaneous regeneration from burns has been tested in rabbits.
A 4 cm^2 cutaneous area of the average-top zone of the test animal back was burned.
The compounds were orally administered in aqueous solution at the dose of 20 mg Kg^-1 once a day for seven days. The area of cutaneous regeneration, i.e. the area of the newly formed tissue was then measured (Table III).

[4] = tested on: bronchial secretion; assay: Expectorant activity (bronchial secretion), method of Perry et al.; type: in vivo, male rabbits; settings: rabbits; for Percentage variations of bronchial secretion, 1 hour: 1 hour after administration; for Percentage variations of bronchial secretion, 2 hours: 2 hours after administration; for Percentage variations of bronchial secretion, 4 hours: 4 hours after administration
Procedure: The tests were carried out on male rabbits, weighing 2-3 Kg, anesthetized with ethyl urethane, by following the method disclosed by Perry et al. (J. Pharm. Exp. Ther. 73, 65, 1941).
Each cannula was connected to a feeding device which delivered a steady flow-rate of pre-heated air (36°-38° C.) at constant humidity (80%). At the lower end of each cannula, a graduated cylinder was fitted, wherein the bronchial secretion was collected. All of the animals breathed spontaneously and consequently they self-regulated the air intake suitable for normal respiration. […] Each dose of drug was administered to 5 animals. The control animals (8) were given water only. The amount of secretion was determined after 1, 2 and 4 hours from administration.

[5] = Mucolytic activity in vitro on human sputum (thromboelastograph, method of Morandini et al.); settings: for Percentage drop ± s.e. of the tracing versus maximum peak (mucolytic activity index), dilution 1/30: 1 ml of a 10% solution at dilution 1/30; for Percentage drop ± s.e. of the tracing versus maximum peak (mucolytic activity index), dilution 1/60: 1 ml of a 10% solution at dilution 1/60
Procedure: The tests were carried out in vitro by using the method disclosed by Morandini et al. (Lotta contro la tubercolosi 47, n. 4, 1977). A thromboelastograph was used to follow the variations induced by the compounds of general formula (I) and acetylcisteine on the rheological properties of human sputum.

[6] = mice, ep, Weil's method (N = 5, K = 4)

CC(S)C(=O)OC(CC(=O)O)C[N+](C)(C)C (stereo not shown) [2-mercapto propionyl carnitine Cl]
LD50 [1]: 294 mg/kg | Percentage of surviving animals [2]: 45% | Percentage of surviving animals, day 10 from irradiation [2]: 80% | Percentage of surviving animals, day 20 from irradiation [2]: 70% | Percentage of regenerated tissue, 4th day [3]: 30% | Percentage of regenerated tissue, 8th day [3]: 65% | Percentage variations of bronchial secretion, 1 hour ([4]; 10 mg oral): +0.1% | Percentage variations of bronchial secretion, 2 hours ([4]; 10 mg oral): +0.2% | Percentage variations of bronchial secretion, 4 hours ([4]; 10 mg oral): +2.0% | Percentage drop ± s.e. of the tracing versus maximum peak (mucolytic activity index), dilution 1/30 [5]: 85.4 ± 6% | Percentage drop ± s.e. of the tracing versus maximum peak (mucolytic activity index), dilution 1/60 [5]: 46.5 ± 6%

C[N+](C)(C)CC(CC(=O)O)OC(=O)CCCCS (stereo not shown) [5-mercapto valeryl carnitine Cl]
LD50 [1]: 281 mg/kg | Percentage of surviving animals [2]: 50% | Percentage of surviving animals, day 10 from irradiation [2]: 95% | Percentage of surviving animals, day 20 from irradiation [2]: 70% | Percentage of regenerated tissue, 4th day [3]: 20% | Percentage of regenerated tissue, 8th day [3]: 60% | Percentage variations of bronchial secretion, 1 hour ([4]; 15 mg oral): +0.6% | Percentage variations of bronchial secretion, 2 hours ([4]; 15 mg oral): -0.3% | Percentage variations of bronchial secretion, 4 hours ([4]; 15 mg oral): +1.4% | Percentage drop ± s.e. of the tracing versus maximum peak (mucolytic activity index), dilution 1/30 [5]: 90.3 ± 6% | Percentage drop ± s.e. of the tracing versus maximum peak (mucolytic activity index), dilution 1/60 [5]: 48.3 ± 6%

CC(=O)N[C@@H](CS)C(=O)O [Acetylcysteine, reference compound]
Percentage drop ± s.e. of the tracing versus maximum peak (mucolytic activity index), dilution 1/30 [5]: 75.7 ± 7% | Percentage drop ± s.e. of the tracing versus maximum peak (mucolytic activity index), dilution 1/60 [5]: 22.3 ± 4%

CCC(S)C(=O)OC(CC(=O)O)C[N+](C)(C)C (stereo not shown) [2-mercapto butyryl carnitine Cl]
LD50 [1]: 294 mg/kg | Percentage of surviving animals [2]: 70% | Percentage of surviving animals, day 10 from irradiation [2]: 100% | Percentage of surviving animals, day 20 from irradiation [2]: 85% | Percentage of regenerated tissue, 4th day [3]: 35% | Percentage of regenerated tissue, 8th day [3]: 95% | Percentage variations of bronchial secretion, 1 hour ([4]; 15 mg oral): +0.5% | Percentage variations of bronchial secretion, 2 hours ([4]; 15 mg oral): +0.9% | Percentage variations of bronchial secretion, 4 hours ([4]; 15 mg oral): +2.3% | Percentage drop ± s.e. of the tracing versus maximum peak (mucolytic activity index), dilution 1/30 [5]: 85.3 ± 4% | Percentage drop ± s.e. of the tracing versus maximum peak (mucolytic activity index), dilution 1/60 [5]: 38.4 ± 5%

C[N+](C)(C)CC(CC(=O)O)OC(=O)CCCS (stereo not shown) [4-mercapto butyryl carnitine Cl, 4-mercapto butyryl carnitine hydrochloride]
LD50 [1, 6]: 303 mg/kg | Percentage of surviving animals [2]: 55% | Percentage of surviving animals, day 10 from irradiation [2]: 100% | Percentage of surviving animals, day 20 from irradiation [2]: 80% | Percentage of regenerated tissue, 4th day [3]: 25% | Percentage of regenerated tissue, 8th day [3]: 70% | Percentage variations of bronchial secretion, 1 hour ([4]; 20 mg oral): +0.4% | Percentage variations of bronchial secretion, 2 hours ([4]; 20 mg oral): +0.6% | Percentage variations of bronchial secretion, 4 hours ([4]; 20 mg oral): +1.2%

C[N+](C)(C)CC(CC(=O)O)OC(=O)CS (stereo not shown) [mercapto acetyl carnitine Cl]
LD50 [1]: 308 mg/kg | Percentage of surviving animals [2]: 30% | Percentage of surviving animals, day 10 from irradiation [2]: 85% | Percentage of surviving animals, day 20 from irradiation [2]: 45% | Percentage of regenerated tissue, 4th day [3]: 35% | Percentage of regenerated tissue, 8th day [3]: 70% | Percentage variations of bronchial secretion, 1 hour ([4]; 10 mg oral): +0.3% | Percentage variations of bronchial secretion, 2 hours ([4]; 10 mg oral): +0.9% | Percentage variations of bronchial secretion, 4 hours ([4]; 10 mg oral): +2.4% | Percentage drop ± s.e. of the tracing versus maximum peak (mucolytic activity index), dilution 1/30 [5]: 78.3 ± 5% | Percentage drop ± s.e. of the tracing versus maximum peak (mucolytic activity index), dilution 1/60 [5]: 45.2 ± 4%

C[N+](C)(C)CC(CC(=O)O)OC(=O)CCS (stereo not shown) [3-mercapto propionyl carnitine Cl, 3-mercapto propionyl carnitine hydrochloride]
LD50 [1, 6]: 312 mg/kg | Percentage of surviving animals [2]: 60% | Percentage of surviving animals, day 10 from irradiation [2]: 90% | Percentage of surviving animals, day 20 from irradiation [2]: 80% | Percentage of regenerated tissue, 4th day [3]: 40% | Percentage of regenerated tissue, 8th day [3]: 80% | Percentage variations of bronchial secretion, 1 hour ([4]; 15 mg oral): -0.2% | Percentage variations of bronchial secretion, 2 hours ([4]; 15 mg oral): +0.4% | Percentage variations of bronchial secretion, 4 hours ([4]; 15 mg oral): +1.1%
